Assay results published in publication PMC12040169 (PLOS Biology, 2025).

Assay: in vitro
Details: human, hela cells, % viability

In order of falling viability at 28.5 h, 10 µM:
1. O=C(Nc1ccc2nc(-c3ccc(-c4nc5ccc(NC(=O)c6cccc7ccccc67)cc5[nH]4)cc3)[nH]c2c1)c1cccc2ccccc12 [CBK261160]  120%
2. O=C(NC(C(=O)N/N=C/c1ccccc1O)c1n[nH]c(=O)c2ccccc12)c1ccccc1 (stereo not drawn) [CBK261117]  113%
3. CCOC(=O)C(C(=O)OCC)(N1CCOCC1)N1CCOCC1 [CBK261176]  112%
4. Cc1ccc(S(=O)(=O)Nc2ccc(C3(c4ccc(NS(=O)(=O)c5ccc(C)cc5)cc4)c4ccccc4C(=O)c4ccccc43)cc2)cc1 [CBK261155]  111%
5. Cc1ccnc(NCn2nnc3ccccc32)c1 [CBK261116]  110%
6. O=S(=O)(c1ccc2nc(-c3ccccc3)c(-c3ccc(O)cc3)nc2c1)c1ccc2nc(-c3ccccc3)c(-c3ccc(O)cc3)nc2c1 [CBK261148]  108%
7. O=C(Nc1c[nH]c(=O)[nH]c1=O)c1ccc(Oc2ccc(C(=O)Nc3c[nH]c(=O)[nH]c3=O)cc2)cc1 [CBK261184]  108%
8. Cc1ccc(S(=O)(=O)NCC23C=CC(O2)C2C(=O)N(Cc4ccccc4)C(=O)C23)cc1 (stereo not drawn) [CBK261170]  107%
9. O=C(O)CCCNC(=O)c1ccncc1 [CBK261146]  104%
10. O=S(=O)(NCCc1ccccc1)c1cccc2nsnc12 [CBK261128]  103%
11. CC(C)(C)c1ccc(OCC(O)CNS(=O)(=O)O)cc1 (stereo not drawn) [CBK261169N]  102%
12. N#CCCN(CCN1CCCC1)S(=O)(=O)c1cccc2nsnc12 [CBK261141]  99.3%
13. O=C(O)c1ccc(C2(c3ccc(C(=O)O)cc3)OC(=O)c3ccccc32)cc1 [CBK261150]  98.2%
14. O=C(O)CNS(=O)(=O)c1cccc2nsnc12 [CBK261136]  96.8%
15. O=C(O)c1c(Cl)c(C(=O)O)c(C(=O)O)c(Cl)c1C(=O)O [CBK261177]  96.8%
16. O=C(c1ccc2c(c1)C(=O)N(N1C(=O)c3ccccc3C1=O)C2=O)c1ccc2c(c1)C(=O)N(N1C(=O)c3ccccc3C1=O)C2=O [CBK261182]  96.4%
17. O=C(Nc1ccc(-c2nc3ccc(-c4nc5ccc(NC(=O)c6cccc7ccccc67)cc5[nH]4)cc3[nH]2)cc1)c1cccc2ccccc12 [CBK261161]  94.4%
18. Oc1ccccc1/C=N/c1ccc(Cc2ccc(/N=C/c3ccccc3O)c(O)c2)cc1O [CBK261156]  93.4%
19. C(#Cc1cccc(-c2nc3ccccc3nc2-c2cccc(C#Cc3ccc(Sc4ccccc4)cc3)c2)c1)c1ccc(Sc2ccccc2)cc1 [CBK261158]  93.2%
20. O=C(O)c1ccc(C(=O)c2c3c(=O)n(-c4ccccc4C(=O)O)c(=O)c3cc3c(=O)n(-c4ccccc4C(=O)O)c(=O)c23)cc1 [CBK261183]  91.7%
21. O=C(N/N=C/c1ccncc1)C1CC1C(=O)N/N=C/c1ccncc1 (stereo not drawn) [CBK261115]  90.2%
22. Oc1cccc2ccc(/C=N/N=C/c3ccc4cccc(O)c4n3)nc12 [CBK261127]  89.3%
23. O=C(O)c1ccccc1N1C(=O)c2ccc(Oc3ccc(Oc4ccc5c(c4)C(=O)N(c4ccccc4C(=O)O)C5=O)cc3)cc2C1=O [CBK261186]  88.6%
24. O=[N+]([O-])c1cccc(C(Nc2ccccn2)n2cnc3ccccc32)c1 (stereo not drawn) [CBK261145]  87.6%
25. CN(C)c1nc2ccc(OCCN3CCOCC3)cc2s1 [CBK261135]  82.5%
26. O=C(O)c1ccc2c(c1)C(=O)N(c1ccc(/C=C/C(=O)c3ccccc3)cc1)C2=O [CBK261181]  79.6%
27. O/N=C1/c2ccccc2/C(=N/O)C1c1ccccc1 [CBK261122]  75.2%

Same assay, conditions: human, hela cells, % viability, bulk resorufin, single well

In order of falling viability at 28.5 h, 10 µM:
1. O=C1NC(=S)NC(=O)C1=CNCCc1c[nH]c2ccccc12 [CBK261124]  110%
2. O=C(Nc1cc([N+](=O)[O-])ccc1O)c1cccc(C(=O)Nc2cc([N+](=O)[O-])ccc2O)c1 [CBK261168]  102%
3. O=[N+]([O-])c1ccc(-n2cnc3ccccc32)c([N+](=O)[O-])c1 [CBK261120]  91.9%
